According to the CheMixHub viscosity set:
Several values for one entry are separate records, joined by “and”; a condition that tells them apart may be missing. Equal entries are not always repeated.

Experiment: xn = mol fraction of the nth substance listed

COCCOC + CC1COC(=O)O1
viscosity
Details | 298.15 K | 308.15 K | 318.15 K
101 kPa, x1 = 0.2 | 1.617 mPa·s and 1.616 mPa·s | – | –
101 kPa, x1 = 0.45 | 1.009 mPa·s and 1.007 mPa·s | – | –
101 kPa, x1 = 0.7 | 0.66 mPa·s and 0.659 mPa·s | – | –
101.33 kPa, x1 = 0.0493 | 2.227 mPa·s | 1.833 mPa·s | 1.561 mPa·s
101.33 kPa, x1 = 0.0999 | 1.96 mPa·s | 1.659 mPa·s | 1.417 mPa·s
101.33 kPa, x1 = 0.1524 | 1.752 mPa·s | 1.495 mPa·s | 1.277 mPa·s
101.33 kPa, x1 = 0.1867 | 1.637 mPa·s | 1.402 mPa·s | –
101.33 kPa, x1 = 0.2298 | 1.507 mPa·s | 1.297 mPa·s | 1.113 mPa·s
101.33 kPa, x1 = 0.2769 | – | 1.183 mPa·s | –
101.33 kPa, x1 = 0.3128 | 1.289 mPa·s | – | 0.9676 mPa·s
101.33 kPa, x1 = 0.3708 | 1.162 mPa·s | 0.9973 mPa·s | 0.881 mPa·s
101.33 kPa, x1 = 0.4036 | 1.097 mPa·s | 0.9447 mPa·s | 0.8272 mPa·s
101.33 kPa, x1 = 0.4686 | 0.9699 mPa·s | – | –
101.33 kPa, x1 = 0.5193 | 0.8882 mPa·s | 0.7779 mPa·s | 0.6827 mPa·s
101.33 kPa, x1 = 0.5704 | – | 0.7178 mPa·s | 0.6389 mPa·s
101.33 kPa, x1 = 0.6382 | 0.7272 mPa·s | – | 0.5728 mPa·s
101.33 kPa, x1 = 0.6767 | 0.6885 mPa·s | 0.6105 mPa·s | 0.5449 mPa·s
101.33 kPa, x1 = 0.7589 | 0.6047 mPa·s | – | 0.4782 mPa·s
101.33 kPa, x1 = 0.8103 | 0.5589 mPa·s | 0.5052 mPa·s | 0.4571 mPa·s
101.33 kPa, x1 = 0.8432 | 0.5429 mPa·s | 0.4728 mPa·s | 0.4376 mPa·s
101.33 kPa, x1 = 0.9035 | 0.4872 mPa·s | 0.4381 mPa·s | 0.397 mPa·s
101.33 kPa, x1 = 0.9483 | 0.4564 mPa·s | 0.4073 mPa·s | 0.375 mPa·s
101.33 kPa, x2 = 0.2217 | 0.5911 mPa·s | 0.5265 mPa·s | 0.4711 mPa·s
101.33 kPa, x2 = 0.3749 | 0.7628 mPa·s | 0.6716 mPa·s | 0.5956 mPa·s
101.33 kPa, x2 = 0.5841 | 1.099 mPa·s | 0.9453 mPa·s | 0.8342 mPa·s
101.33 kPa, x2 = 0.7836 | 1.594 mPa·s | 1.356 mPa·s | 1.168 mPa·s

COC(C)=O + CC#N
303.15 K, 101.33 kPa
Details | viscosity [mPa·s]
x2 = 0.1087 | 0.3472
x2 = 0.1994 | 0.3482
x2 = 0.3009 | 0.3485
x2 = 0.4037 | 0.3481
x2 = 0.4994 | 0.3474
x2 = 0.5996 | 0.3461
x2 = 0.7019 | 0.3429
x2 = 0.7979 | 0.3376
x2 = 0.9006 | 0.3322

COc1ccccc1N + CC(=O)O
viscosity [mPa·s], 100 kPa
Details | x1 = 0.1011 | x1 = 0.1745 | x1 = 0.2562 | x1 = 0.3454 | x1 = 0.4852 | x1 = 0.5894 | x1 = 0.6674 | x1 = 0.7458 | x1 = 0.8979
303.15 K | 1.442 | 1.732 | 2.053 | 2.402 | 2.947 | 3.351 | 3.652 | 3.953 | 4.535
308.15 K | 1.349 | 1.618 | 1.916 | 2.24 | 2.745 | 3.118 | 3.397 | 3.676 | 4.214
313.15 K | 1.257 | 1.505 | 1.78 | 2.078 | 2.541 | 2.885 | 3.141 | 3.397 | 3.891
318.15 K | 1.166 | 1.394 | 1.646 | 1.92 | 2.346 | 2.662 | 2.897 | 3.132 | 3.584

COc1ccccc1N + CC(C)(C)O
viscosity [mPa·s], 101 kPa
Details | x1 = 0.1116 | x1 = 0.186 | x1 = 0.2667 | x1 = 0.3547 | x1 = 0.4852 | x1 = 0.5945 | x1 = 0.6737 | x1 = 0.7585 | x1 = 0.8979
303.15 K | 3.186 | 3.335 | 3.499 | 3.676 | 3.932 | 4.141 | 4.289 | 4.448 | 4.714
308.15 K | 2.904 | 3.046 | 3.199 | 3.363 | 3.602 | 3.797 | 3.935 | 4.083 | 4.327
313.15 K | 2.371 | 2.521 | 2.681 | 2.855 | 3.114 | 3.333 | 3.493 | 3.669 | 3.962
318.15 K | 1.967 | 2.116 | 2.277 | 2.451 | 2.718 | 2.95 | 3.123 | 3.314 | 3.639
